Source: patent US20080318326A1 (priority 2005, published 2008)
Peptide text beside a SMILES is read from it.

Test: Alamethicin channel currents across PTFE-supported bilayer lipid membrane
Assay type: biochemical
Conditions: alamethicin 100 ng/ml on both sides of PTFE support matrix
Description: Alamethicin is a peptide that spontaneously inserts itself into a bilayer lipid membrane. Molecules of alamethicin can diffuse within the plane of the membrane and may associate with other alamethicin molecules to form a channel for the passage of small ions when a voltage is applied across a bilayer lipid membrane.
Given the above, alamethicin was used as an indicator of bilayer lipid membrane formation success.
In this example, alamethicin is dissolved in 100% ethanol (5 μg/ml) and stored at 4° C. After the bilayer lipid membrane is formed, alamethicin is added to solutions on both sides of the PTFE support matrix 11 to a final concentration of 100 ng/ml. Electrochemical measurements were then carried out using a two electrode system. Silver/silver chloride wires were used as the working and reference electrodes and based on measurements taken, channels were observed after 10 minutes.
The nature of the electrical current caused by the flow of ions is understood to be dependent on: • 1. The concentration of ions bathing the bilayer lipid membrane, • 2. The voltage applied and, • 3. The concentration of alamethicin.

CC(=O)NC(C)(C)C(=O)N1CCC[C@H]1C(=O)NC(C)(C)C(=O)N[C@@H](C)C(=O)NC(C)(C)C(=O)N[C@@H](C)C(=O)N[C@@H](CCC(N)=O)C(=O)NC(C)(C)C(=O)N[C@H](C(=O)NC(C)(C)C(=O)NCC(=O)N[C@@H](CC(C)C)C(=O)NC(C)(C)C(=O)N1CCC[C@H]1C(=O)N[C@H](C(=O)NC(C)(C)C(=O)NC(C)(C)C(=O)N[C@@H](CCC(=O)O)C(=O)N[C@@H](CCC(N)=O)C(=O)N[C@H](CO)Cc1ccccc1)C(C)C)C(C)C [alamethicin] (HELM PEPTIDE1{[ac].[Aib].P.[Aib].A.[Aib].A.Q.[Aib].V.[Aib].G.L.[Aib].P.V.[Aib].[Aib].E.Q.[OC[C@H](Cc1ccccc1)N[*:1]]}$$$$V2.0)
time after which channels were observed: 10 min
